Laboratory results published in ChEMBL document CHEMBL4507266, “Data for DCP probe BAY-784” (2021).

What was measured:
[1] = biological target: Rho-associated protein kinase 2 (Homo sapiens) (UniProt O75116); conditions: Compound concentration 1000.0 nM
[2] = biological target: Serine/threonine-protein kinase DCLK2 (Homo sapiens) (UniProt Q8N568); conditions: Compound concentration 1000.0 nM
[3] = test system: Mast/stem cell growth factor receptor Kit (Homo sapiens), P10721 [A829P]; conditions: Compound concentration 1000.0 nM
[4] = biological target: Aurora kinase C (Homo sapiens) (UniProt Q9UQB9); conditions: Compound concentration 1000.0 nM
[5] = biological target: Ribosomal protein S6 kinase alpha-5 (Homo sapiens) (UniProt O75582); conditions: Compound concentration 1000.0 nM
[6] = biological target: Serine/threonine-protein kinase PRP4 homolog (Homo sapiens) (UniProt Q13523); conditions: Compound concentration 1000.0 nM
[7] = biological target: T1, Alpha-1A adrenergic receptor (Homo sapiens) (UniProt P35348); conditions: Compound concentration 10.0 uM
T1 sequence (whole entry): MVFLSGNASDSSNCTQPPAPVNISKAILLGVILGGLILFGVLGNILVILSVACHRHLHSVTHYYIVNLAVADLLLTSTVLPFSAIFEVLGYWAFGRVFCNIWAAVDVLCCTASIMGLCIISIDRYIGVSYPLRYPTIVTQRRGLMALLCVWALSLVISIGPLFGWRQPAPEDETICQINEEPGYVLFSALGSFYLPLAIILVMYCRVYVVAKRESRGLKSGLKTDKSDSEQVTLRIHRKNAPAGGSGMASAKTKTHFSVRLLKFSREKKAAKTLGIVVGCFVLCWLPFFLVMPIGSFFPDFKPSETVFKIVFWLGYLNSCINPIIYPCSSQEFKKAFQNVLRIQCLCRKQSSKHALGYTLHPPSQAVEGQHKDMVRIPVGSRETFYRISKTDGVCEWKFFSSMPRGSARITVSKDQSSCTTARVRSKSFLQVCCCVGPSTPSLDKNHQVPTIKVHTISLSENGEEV

[8] = biological target: Casein kinase I isoform alpha-like (Homo sapiens) (UniProt Q8N752); conditions: Compound concentration 1000.0 nM
[9] = biological target: Fibroblast growth factor receptor 3 (Homo sapiens) (UniProt P22607); conditions: Compound concentration 1000.0 nM
[10] = biological target: Mitogen-activated protein kinase 7 (Homo sapiens) (UniProt Q13164); conditions: Compound concentration 1000.0 nM
[11] = biological target: Mitogen-activated protein kinase 13 (Homo sapiens) (UniProt O15264); conditions: Compound concentration 1000.0 nM
[12] = biological target: Beta-1 adrenergic receptor (Homo sapiens) (UniProt P08588); conditions: Compound concentration 10.0 uM
[13] = biological target: Serine/threonine-protein kinase TAO2 (Homo sapiens) (UniProt Q9UL54); conditions: Compound concentration 1000.0 nM
[14] = biological target: Ribosomal protein S6 kinase alpha-5 (Homo sapiens) (UniProt O75582); conditions: Compound concentration 1000.0 nM; remark: listed apart in the source
[15] = biological target: T2, Muscarinic acetylcholine receptor M1 (Homo sapiens) (UniProt P11229); conditions: Compound concentration 10.0 uM
T2 sequence (whole entry): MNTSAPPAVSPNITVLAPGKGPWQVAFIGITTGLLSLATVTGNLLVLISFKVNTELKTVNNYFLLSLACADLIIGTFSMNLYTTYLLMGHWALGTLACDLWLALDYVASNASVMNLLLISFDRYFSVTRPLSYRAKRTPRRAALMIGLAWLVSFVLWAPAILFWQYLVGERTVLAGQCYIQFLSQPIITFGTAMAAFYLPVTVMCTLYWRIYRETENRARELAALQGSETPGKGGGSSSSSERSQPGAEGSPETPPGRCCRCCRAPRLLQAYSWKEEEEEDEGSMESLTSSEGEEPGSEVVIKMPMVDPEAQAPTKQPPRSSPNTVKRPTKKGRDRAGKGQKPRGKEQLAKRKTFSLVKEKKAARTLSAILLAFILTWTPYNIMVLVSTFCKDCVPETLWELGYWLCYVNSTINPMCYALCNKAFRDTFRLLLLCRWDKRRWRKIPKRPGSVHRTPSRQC

[16] = biological target: Dual specificity protein kinase CLK1 (Homo sapiens) (UniProt P49759); conditions: Compound concentration 1000.0 nM
[17] = biological target: Serine/threonine-protein kinase 33 (Homo sapiens) (UniProt Q9BYT3); conditions: Compound concentration 1000.0 nM
[18] = biological target: Cyclin-dependent kinase 16 (Homo sapiens) (UniProt Q00536); conditions: Compound concentration 1000.0 nM
[19] = biological target: Serine/threonine-protein kinase BRSK1 (Homo sapiens) (UniProt Q8TDC3); conditions: Compound concentration 1000.0 nM
[20] = biological target: Dual specificity tyrosine-phosphorylation-regulated kinase 2 (Homo sapiens) (UniProt Q92630); conditions: Compound concentration 1000.0 nM
[21] = biological target: NT-3 growth factor receptor (Homo sapiens) (UniProt Q16288); conditions: Compound concentration 1000.0 nM
[22] = biological target: Vascular endothelial growth factor receptor 3 (Homo sapiens) (UniProt P35916); conditions: Compound concentration 1000.0 nM
[23] = biological target: Ephrin type-B receptor 1 (Homo sapiens) (UniProt P54762); conditions: Compound concentration 1000.0 nM
[24] = biological target: RAC-beta serine/threonine-protein kinase (Homo sapiens) (UniProt P31751); conditions: Compound concentration 1000.0 nM
[25] = biological target: Epidermal growth factor receptor (Homo sapiens) (UniProt P00533); conditions: Compound concentration 1000.0 nM
[26] = biological target: Muscle, skeletal receptor tyrosine-protein kinase (Homo sapiens) (UniProt O15146); conditions: Compound concentration 1000.0 nM
[27] = biological target: Death-associated protein kinase 1 (Homo sapiens) (UniProt P53355); conditions: Compound concentration 1000.0 nM
[28] = biological target: Mitogen-activated protein kinase kinase kinase 1 (Homo sapiens) (UniProt Q13233); conditions: Compound concentration 1000.0 nM
[29] = biological target: Activated CDC42 kinase 1 (Homo sapiens) (UniProt Q07912); conditions: Compound concentration 1000.0 nM
[30] = biological target: Mitogen-activated protein kinase 3 (Homo sapiens) (UniProt P27361); conditions: Compound concentration 1000.0 nM
[31] = biological target: Serine/threonine-protein kinase BRSK2 (Homo sapiens) (UniProt Q8IWQ3); conditions: Compound concentration 1000.0 nM
[32] = biological target: Eukaryotic translation initiation factor 2-alpha kinase 1 (Homo sapiens) (UniProt Q9BQI3); conditions: Compound concentration 1000.0 nM
[33] = biological target: Ephrin type-A receptor 6 (Homo sapiens) (UniProt Q9UF33); conditions: Compound concentration 1000.0 nM

Sequence of Ribosomal protein S6 kinase alpha-5 (Homo sapiens) (O75582 whole entry, looked up): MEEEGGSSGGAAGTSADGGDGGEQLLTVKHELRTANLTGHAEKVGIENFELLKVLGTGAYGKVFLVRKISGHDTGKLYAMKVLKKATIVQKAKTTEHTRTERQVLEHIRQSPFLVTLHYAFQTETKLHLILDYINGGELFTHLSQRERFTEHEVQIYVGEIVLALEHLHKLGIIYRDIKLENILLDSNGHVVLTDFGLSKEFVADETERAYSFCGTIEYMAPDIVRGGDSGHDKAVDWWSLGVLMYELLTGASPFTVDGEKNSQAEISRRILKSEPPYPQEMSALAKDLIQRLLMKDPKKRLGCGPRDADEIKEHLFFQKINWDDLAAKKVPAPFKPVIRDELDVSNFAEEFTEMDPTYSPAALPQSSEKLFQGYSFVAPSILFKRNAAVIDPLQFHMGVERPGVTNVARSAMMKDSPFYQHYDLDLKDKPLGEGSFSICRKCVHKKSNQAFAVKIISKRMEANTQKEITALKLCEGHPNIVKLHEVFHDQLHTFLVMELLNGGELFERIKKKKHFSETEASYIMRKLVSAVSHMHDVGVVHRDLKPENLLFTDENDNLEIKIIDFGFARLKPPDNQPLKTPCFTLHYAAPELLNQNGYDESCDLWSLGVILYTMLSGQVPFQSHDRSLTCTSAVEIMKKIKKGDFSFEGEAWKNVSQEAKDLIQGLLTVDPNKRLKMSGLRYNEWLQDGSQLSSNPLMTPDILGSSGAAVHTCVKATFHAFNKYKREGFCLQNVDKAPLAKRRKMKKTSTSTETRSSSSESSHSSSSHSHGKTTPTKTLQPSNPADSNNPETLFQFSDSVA
Sequence of Dual specificity tyrosine-phosphorylation-regulated kinase 2 (Homo sapiens) (Q92630 whole entry): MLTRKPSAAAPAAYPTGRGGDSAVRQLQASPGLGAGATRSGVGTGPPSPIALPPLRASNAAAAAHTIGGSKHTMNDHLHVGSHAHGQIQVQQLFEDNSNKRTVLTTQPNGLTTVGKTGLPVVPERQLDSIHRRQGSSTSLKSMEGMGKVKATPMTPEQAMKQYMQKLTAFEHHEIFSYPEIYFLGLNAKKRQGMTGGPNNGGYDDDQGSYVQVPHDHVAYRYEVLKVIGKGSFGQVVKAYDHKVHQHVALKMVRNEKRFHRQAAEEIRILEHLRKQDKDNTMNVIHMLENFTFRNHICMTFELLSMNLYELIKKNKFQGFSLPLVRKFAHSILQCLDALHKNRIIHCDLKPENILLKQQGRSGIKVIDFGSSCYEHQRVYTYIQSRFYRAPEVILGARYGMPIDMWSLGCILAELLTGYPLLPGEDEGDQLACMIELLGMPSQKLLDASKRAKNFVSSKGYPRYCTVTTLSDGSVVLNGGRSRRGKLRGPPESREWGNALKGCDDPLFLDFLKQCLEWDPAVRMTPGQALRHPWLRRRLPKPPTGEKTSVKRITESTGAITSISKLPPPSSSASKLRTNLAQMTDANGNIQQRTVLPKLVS
Sequence of Mitogen-activated protein kinase 3 (Homo sapiens) (P27361 whole entry): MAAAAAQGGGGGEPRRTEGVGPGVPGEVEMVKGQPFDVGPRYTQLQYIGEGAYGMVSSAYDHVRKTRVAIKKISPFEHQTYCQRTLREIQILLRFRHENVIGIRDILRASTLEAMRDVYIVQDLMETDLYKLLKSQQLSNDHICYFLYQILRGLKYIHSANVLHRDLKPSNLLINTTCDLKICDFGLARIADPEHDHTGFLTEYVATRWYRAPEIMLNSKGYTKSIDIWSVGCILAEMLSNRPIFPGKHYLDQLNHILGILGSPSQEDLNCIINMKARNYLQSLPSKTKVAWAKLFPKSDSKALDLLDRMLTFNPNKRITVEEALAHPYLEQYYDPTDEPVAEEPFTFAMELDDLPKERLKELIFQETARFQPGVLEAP
Sequence of Vascular endothelial growth factor receptor 3 (Homo sapiens) (P35916 whole entry): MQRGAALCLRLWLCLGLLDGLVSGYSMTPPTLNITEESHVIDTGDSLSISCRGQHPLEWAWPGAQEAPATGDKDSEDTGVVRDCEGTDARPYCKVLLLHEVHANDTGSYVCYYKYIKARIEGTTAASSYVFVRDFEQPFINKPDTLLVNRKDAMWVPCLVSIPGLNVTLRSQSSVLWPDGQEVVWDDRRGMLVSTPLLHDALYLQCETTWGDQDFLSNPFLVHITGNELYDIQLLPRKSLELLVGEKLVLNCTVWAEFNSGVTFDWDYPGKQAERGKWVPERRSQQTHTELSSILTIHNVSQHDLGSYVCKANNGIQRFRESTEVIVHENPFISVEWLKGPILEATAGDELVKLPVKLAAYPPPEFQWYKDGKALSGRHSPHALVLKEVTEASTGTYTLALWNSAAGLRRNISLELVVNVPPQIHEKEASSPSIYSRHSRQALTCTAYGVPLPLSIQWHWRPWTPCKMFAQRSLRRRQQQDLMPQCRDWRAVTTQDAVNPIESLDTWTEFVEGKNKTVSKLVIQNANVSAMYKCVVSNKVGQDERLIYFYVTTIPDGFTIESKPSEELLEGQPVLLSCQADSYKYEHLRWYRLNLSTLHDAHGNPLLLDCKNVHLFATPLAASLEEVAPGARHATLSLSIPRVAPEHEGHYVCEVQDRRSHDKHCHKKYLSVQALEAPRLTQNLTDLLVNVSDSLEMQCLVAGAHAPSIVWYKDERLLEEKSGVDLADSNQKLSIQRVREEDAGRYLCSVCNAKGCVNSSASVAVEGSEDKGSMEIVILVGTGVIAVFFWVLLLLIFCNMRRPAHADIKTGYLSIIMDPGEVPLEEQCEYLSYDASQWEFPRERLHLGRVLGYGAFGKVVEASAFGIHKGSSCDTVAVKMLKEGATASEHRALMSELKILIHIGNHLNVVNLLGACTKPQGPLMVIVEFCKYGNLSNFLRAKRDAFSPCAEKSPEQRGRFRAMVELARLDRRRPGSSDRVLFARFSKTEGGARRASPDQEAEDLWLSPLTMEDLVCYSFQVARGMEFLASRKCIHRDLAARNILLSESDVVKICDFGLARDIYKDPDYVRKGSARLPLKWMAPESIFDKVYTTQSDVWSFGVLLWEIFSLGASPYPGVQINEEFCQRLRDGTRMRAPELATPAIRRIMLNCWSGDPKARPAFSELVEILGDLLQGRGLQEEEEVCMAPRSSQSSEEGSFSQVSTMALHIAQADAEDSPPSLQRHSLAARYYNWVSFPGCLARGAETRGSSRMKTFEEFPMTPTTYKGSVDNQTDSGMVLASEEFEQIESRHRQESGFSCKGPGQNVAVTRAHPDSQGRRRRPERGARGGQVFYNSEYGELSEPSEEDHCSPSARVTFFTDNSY
Sequence of Eukaryotic translation initiation factor 2-alpha kinase 1 (Homo sapiens) (Q9BQI3 whole entry): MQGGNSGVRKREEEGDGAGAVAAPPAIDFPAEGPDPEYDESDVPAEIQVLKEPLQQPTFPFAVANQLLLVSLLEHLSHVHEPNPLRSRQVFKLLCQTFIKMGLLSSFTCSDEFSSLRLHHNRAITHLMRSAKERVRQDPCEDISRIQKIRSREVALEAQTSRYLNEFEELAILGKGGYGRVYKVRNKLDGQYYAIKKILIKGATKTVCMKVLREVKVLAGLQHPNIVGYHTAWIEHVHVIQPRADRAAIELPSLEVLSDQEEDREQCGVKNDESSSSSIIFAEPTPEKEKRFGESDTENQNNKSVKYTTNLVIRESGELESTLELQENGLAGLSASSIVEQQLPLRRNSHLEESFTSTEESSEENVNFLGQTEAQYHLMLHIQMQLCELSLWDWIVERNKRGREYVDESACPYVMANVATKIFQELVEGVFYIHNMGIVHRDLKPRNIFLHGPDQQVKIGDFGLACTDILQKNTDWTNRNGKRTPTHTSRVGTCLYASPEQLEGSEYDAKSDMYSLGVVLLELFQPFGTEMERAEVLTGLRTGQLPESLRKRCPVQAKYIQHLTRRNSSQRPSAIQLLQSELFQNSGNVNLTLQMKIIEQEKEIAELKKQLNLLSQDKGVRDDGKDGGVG
Sequence of Serine/threonine-protein kinase BRSK1 (Homo sapiens) (Q8TDC3 whole entry): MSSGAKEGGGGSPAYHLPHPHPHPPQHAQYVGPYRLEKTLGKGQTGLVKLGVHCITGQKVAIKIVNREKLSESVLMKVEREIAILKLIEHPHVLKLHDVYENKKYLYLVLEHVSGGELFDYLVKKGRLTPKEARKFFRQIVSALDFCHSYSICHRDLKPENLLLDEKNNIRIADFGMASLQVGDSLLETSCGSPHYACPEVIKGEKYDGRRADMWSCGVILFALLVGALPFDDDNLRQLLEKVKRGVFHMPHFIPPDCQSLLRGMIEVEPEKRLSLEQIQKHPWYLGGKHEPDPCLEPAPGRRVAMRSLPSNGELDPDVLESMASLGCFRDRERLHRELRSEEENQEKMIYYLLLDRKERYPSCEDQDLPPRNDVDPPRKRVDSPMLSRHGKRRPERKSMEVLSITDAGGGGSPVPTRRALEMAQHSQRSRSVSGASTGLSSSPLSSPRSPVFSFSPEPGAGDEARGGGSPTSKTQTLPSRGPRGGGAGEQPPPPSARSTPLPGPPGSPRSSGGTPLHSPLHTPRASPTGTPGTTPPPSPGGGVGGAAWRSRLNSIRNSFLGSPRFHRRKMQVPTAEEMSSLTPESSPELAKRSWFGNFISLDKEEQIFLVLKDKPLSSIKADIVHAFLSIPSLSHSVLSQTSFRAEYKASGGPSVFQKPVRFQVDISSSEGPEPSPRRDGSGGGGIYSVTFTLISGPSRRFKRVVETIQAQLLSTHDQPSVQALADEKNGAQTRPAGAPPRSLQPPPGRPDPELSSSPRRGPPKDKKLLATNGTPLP
Sequence of Dual specificity protein kinase CLK1 (Homo sapiens) (P49759 whole entry, looked up): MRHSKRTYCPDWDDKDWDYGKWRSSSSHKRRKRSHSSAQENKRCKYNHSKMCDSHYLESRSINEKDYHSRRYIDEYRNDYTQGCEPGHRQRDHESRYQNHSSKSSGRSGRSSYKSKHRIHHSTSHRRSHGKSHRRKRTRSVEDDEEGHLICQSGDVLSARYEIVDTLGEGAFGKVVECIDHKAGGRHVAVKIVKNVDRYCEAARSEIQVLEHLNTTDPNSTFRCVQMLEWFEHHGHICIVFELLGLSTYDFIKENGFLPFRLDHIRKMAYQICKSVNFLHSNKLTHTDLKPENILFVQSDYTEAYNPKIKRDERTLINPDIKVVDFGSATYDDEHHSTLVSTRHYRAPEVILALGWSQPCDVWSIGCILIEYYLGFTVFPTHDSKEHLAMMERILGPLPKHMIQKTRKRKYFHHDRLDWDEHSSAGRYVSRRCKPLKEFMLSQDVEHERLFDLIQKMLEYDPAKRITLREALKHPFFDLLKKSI

O=C(NCc1ncc(C(F)(F)F)cc1Cl)c1ccc2c(c1)C1(CCS(=O)(=O)CC1)[C@H](C1CC1)N2S(=O)(=O)c1ccc(F)cc1 [BAY-784]
inactive: residual activity [1] 95% | residual activity [2] 100% | residual activity [3] 92% | residual activity [4] 82% | residual activity [5] 95% | residual activity [6] 100% | inhibition [7] -0.32% | residual activity [8] 95% | residual activity [9] 100% | residual activity [10] 99% | residual activity [11] 99% | inhibition [12] -0.08% | residual activity [13] 81% | residual activity [14] 100% | inhibition [15] -2.96% | residual activity [16] 100% | residual activity [17] 100% | residual activity [18] 100% | residual activity [19] 100% | residual activity [20] 95% | residual activity [21] 84% | residual activity [22] 92% | residual activity [23] 100% | residual activity [24] 100% | residual activity [25] 95% | residual activity [26] 100% | residual activity [27] 100% | residual activity [28] 63% | residual activity [29] 85% | residual activity [30] 100% | residual activity [31] 100% | residual activity [32] 86% | residual activity [33] 100%

O=C(NCc1ncc(C(F)(F)F)cc1Cl)c1ccc2c(c1)C1(CCS(=O)(=O)CC1)[C@@H](C1CC1)N2S(=O)(=O)c1ccc(F)cc1 [BAY-786]
inactive: residual activity [1] 93% | residual activity [2] 100% | residual activity [3] 67% | residual activity [4] 80% | residual activity [5] 100% | residual activity [6] 84% | inhibition [7] 1.7% | residual activity [8] 100% | residual activity [9] 100% | residual activity [10] 97% | residual activity [11] 86% | inhibition [12] -1.82% | residual activity [13] 64% | residual activity [14] 97% | inhibition [15] -3.7% | residual activity [16] 100% | residual activity [17] 86% | residual activity [18] 80% | residual activity [19] 100% | residual activity [20] 90% | residual activity [21] 71% | residual activity [22] 100% | residual activity [23] 100% | residual activity [24] 100% | residual activity [25] 100% | residual activity [26] 79% | residual activity [27] 100% | residual activity [28] 68% | residual activity [29] 84% | residual activity [30] 83% | residual activity [31] 100% | residual activity [32] 94% | residual activity [33] 100%
